Data set [1] can be described thus: Stability against enzymatic degradation in vivo (radio-HPLC of blood). More on the design: species or system BALB/c mice. Particulars: ^177Lu-labelled; for percentage of intact radioligand present in the blood: 30 min p.i. How it is done: To further characterise the stability of the radiolabelled peptidomimetic in vivo, metabolic studies were carried out in 5-6-week-old female BALB/c mice (Charles River, Sulzfeld, Germany) injected intravenously with ^177Lu-labelled and ^68Ga-labelled peptidomimetics. All animal experiments were conducted in compliance with the Austrian animal protection laws and with the approval of the Austrian Ministry of Science. To allow monitoring of the metabolites by radio-HPLC, mice were injected with a higher amount of radioactivity (20-40 MBq ^177Lu, corresponding to ˜1 nmol total peptide, or ˜10 MBq ^68Ga, corresponding to ˜1 nmol total peptide) through a lateral tail vein and euthanized by cervical dislocation at selected time points p.i. […] A sample of blood was collected and the degradation was assessed by radio-HPLC. For this purpose blood samples were precipitated with ACN, centrifuged at 2000 g for 2 min and diluted with water (1:1/v:v) prior to HPLC analysis using a Dionex chromatography system including radiodetection and UV detection equipped with a Phenomenex Jupiter Proteo C12 column (90 Å, 4 μm, 250×4.6 mm) column using a water/acetonitrile/0.1% TFA gradient system.

Data set [2] has as its system A431-CCK2R and A431-mock tumour xenografts. As to conditions: ^177Lu-labelled, 4 h p.i., Klingler M et al., J Med Chem 2020; cited from earlier work.
The next data set deals with T1, CCK2R (Homo sapiens, UniProt P32239).
T1 construct: expressed in transfected cells; host or cells: A431 cells (A431-CCK2R), provided by Dr. Luigi Aloj
T1 sequence (P32239 1-447): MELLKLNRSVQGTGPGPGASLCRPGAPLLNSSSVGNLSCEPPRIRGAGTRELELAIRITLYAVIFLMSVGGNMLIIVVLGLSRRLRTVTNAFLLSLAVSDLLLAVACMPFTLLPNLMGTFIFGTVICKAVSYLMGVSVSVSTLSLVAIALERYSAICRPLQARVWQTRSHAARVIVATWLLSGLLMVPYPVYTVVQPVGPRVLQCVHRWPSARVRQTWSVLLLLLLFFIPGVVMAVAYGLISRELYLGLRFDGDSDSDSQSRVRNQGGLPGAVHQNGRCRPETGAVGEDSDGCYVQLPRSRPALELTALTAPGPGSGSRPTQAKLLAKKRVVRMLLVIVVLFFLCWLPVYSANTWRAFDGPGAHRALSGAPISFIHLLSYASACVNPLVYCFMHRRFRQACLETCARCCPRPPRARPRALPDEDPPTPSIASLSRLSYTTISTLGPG
The experiment in a line: Competition binding assay against [^125I][3-iodo-Tyr^12,Leu^15]gastrin-I on A431-CCK2R cells. As to conditions: displacement of [^125I][3-iodo-Tyr^12,Leu^15]gastrin-I, 1 h at RT. The method, then:
Affinity for CCK2R was studied in A431-CCK2R cells. […] Radioiodination of gastrin-I was carried out using the chloramine-T method. Non-carrier-added [^125I][3-iodo-Tyr^12,Leu^15]gastrin-I was obtained by HPLC purification and stored in aliquots at −20° C. Binding assays were carried out in 96-well filter plates (MultiScreenHTS-FB, Merck Group, Darmstadt, Germany) pretreated with 10 mM TRIS/139 mM NaCl pH 7.4 (2×250 μL). For the assay a number of 400,000 A431-CCK2R cells per well was prepared in 35 mM HEPES buffer pH 7.4 containing 10 mM MgCl2, 14 μM bacitracin and 0.5% BSA (a hypotonic solution disturbing the integrity of the cell membranes). The cells were incubated in triplicates with increasing concentrations of the peptidomimetics (0.0003 to 1,000 nM) and [^125I-Tyr^12]gastrin-I (˜25,000 cpm) for 1 h at RT. Incubation was interrupted by filtration of the medium and rapid rinsing with ice-cold 10 mM TRIS/139 mM NaCl pH 7.4 (2×200 μl) and the filters were counted in the gamma-counter. Half maximal inhibitory concentration (IC50) values were calculated following nonlinear regression with Origin software (Microcal Origin 6.1, Northampton, MA) and a representative assay was chosen for comparison.

A short description of data set [3]: in vivo. As to conditions: female, athymic BALB/c nude, mouse, iv, total radioactivity.
Protocol: (§1) For the induction of tumour xenografts, A431-CCK2R and A431-mock cells were injected subcutaneously in athymic BALB/c nude mice (Charles River or Janvier Labs), respectively (2 million cells in 200 μL). When tumours had reached a size of approximately 0.2 ml, biodistribution studies were carried out. Groups of 3-5 mice were injected intravenously via a lateral tail vein with the peptidomimetics, labelled with ^177Lu (0.5-1 MBq and 0.02-0.03 nmol peptidomimetic) or ^68Ga (˜0.5 MBq and 0.02-0.03 nmol peptidomimetic). […] After selected time points post-injection (p.i.) the animals were sacrificed by cervical dislocation, tumours and other tissues (blood, lung, heart, muscle, bone, spleen, intestine, liver, kidneys, stomach, pancreas) were removed, weighed, and their radioactivity measured in a gamma counter.
In further biodistribution studies the tumour uptake and imaging properties of different ^68Ga-labelled pepitdiomimetics was evaluated. For this purpose female athymic BALB/c nude mice (Janvier Labs, Le Genest Saint Isle, France) were inoculated with A431-CCK2R cells (left flank) at an age of 8-10 weeks.
Data set [4] relates to A431-CCK2R tumour xenografts. Particulars: ^68Ga-labelled, previously reported (Klingler M et al., J Nucl Med 2019); cited from earlier work.
For data set [5], the system named is A431-CCK2R tumour xenografts. The experiment in a line: Biodistribution of ^177Lu-labelled peptidomimetics up to 7 days p.i. As to conditions: difference not significant.
Protocol: (§2) For the induction of tumour xenografts, A431-CCK2R and A431-mock cells were injected subcutaneously in athymic BALB/c nude mice (Charles River or Janvier Labs), respectively (2 million cells in 200 μL). When tumours had reached a size of approximately 0.2 ml, biodistribution studies were carried out. Groups of 3-5 mice were injected intravenously via a lateral tail vein with the peptidomimetics, labelled with ^177Lu (0.5-1 MBq and 0.02-0.03 nmol peptidomimetic) or ^68Ga (˜0.5 MBq and 0.02-0.03 nmol peptidomimetic). To check for receptor specificity blocking studies using co-injection of a 1000-fold molar excess of the unlabelled peptide (˜20 nmol) together with the administration of the ^177Lu-labelled peptide were performed (FIG. 3). After selected time points post-injection (p.i.) the animals were sacrificed by cervical dislocation, tumours and other tissues (blood, lung, heart, muscle, bone, spleen, intestine, liver, kidneys, stomach, pancreas) were removed, weighed, and their radioactivity measured in a gamma counter.
(§3) The biodistribution profile of ^177Lu-DOTA-MGSA and ^177Lu-DOTA-MGS5 over up to 7 days was studied in female athymic BALB/c nude mice, inoculated with A431-CCK2R cells (left flank) at an age of 6-8 weeks (5 animals per peptidomimetic and for each time point of 1 h, 24 h, 3 d and 7 d). When tumours had reached a size of approximately 0.1-0.2 ml, biodistribution studies were carried out.
Data set [6] is described as follows: Biodistribution of ^177Lu-labelled peptidomimetics at 4 h p.i. in xenografted nude mice. As to conditions: female, athymic BALB/c nude, mouse, iv, total radioactivity.
Protocol: (§4) Biodistribution studies evaluating the tumour uptake of the radiolabelled inventive CCK2R targeting peptide analogues were performed in xenografted nude mice.
as §1
(§5) Results were expressed as percentage of injected activity per gram tissue (% IA/g) and tumour to organ activity ratios were calculated from the activity measured in the dissected tissues (FIGS. 2 and 3).
Data set [7] relates to A431-CCK2R tumour xenografts. As to conditions: mouse, in vivo.
Protocol: as §2, §3
Data set [8] in a line: in vivo. As to conditions: female, athymic BALB/c nude, mouse, iv, total radioactivity. The source holds these as a separate data set.
Protocol: as §4, §1, §5
A short description of data set [9]: in vivo. As to conditions: female, athymic BALB/c nude, mouse, iv, total radioactivity. This is another data set of the same source.
Protocol: as §2, §3
Where [10] appears, read: tumour uptake in A431-CCK2R xenografts.

This is an account of results in patent publication US20240091390A1, “IMPROVED CHOLECYSTOKININ-2 RECEPTOR (CCK2R) TARGETING FOR DIAGNOSIS AND THERAPY” (Medizinische Universität Innsbruck, priority 2021, published 2024).

SMILES strings stand for the structures. Starred links: 1 amine or outer side, 2 acyl side, 3 side chain; linkers in the order of their positions; H or OH if unused. Non-standard residues stand in square brackets, D forms with d. Residues, ends and D or L forms follow the SMILES beside them. *: point of attachment. DOTA = O=C(O)CN1CCN(CC(=O)O)CCN(CC(=O)*)CCN(CC(=O)O)CC1; d(γGlu) = O=C(O)[C@@H](CCC(=O)[*:2])N[*:1]; 1Nal = N[C@@H](Cc1cccc2ccccc12)C(=O)O; NMeNle = CCCC[C@H](NC)C(=O)O; GABA = NCCCC(=O)O; βAla = NCCC(=O)O

With `CCCC[C@H](NC(=O)[C@H](Cc1c[nH]c2ccccc12)NC(=O)CNC(=O)[C@H](Cc1ccc(O)cc1)NC(=O)[C@H](C)NC(=O)[C@@H](CCC(=O)O)NC(=O)[C@@H](CCC(=O)O)NC(=O)[C@@H](CCC(=O)O)NC(=O)[C@@H](CCC(=O)O)NC(=O)[C@@H](CCC(=O)O)NC(=O)[C@@H](CCC(=O)O)NC(=O)CN1CCN(CC(=O)O)CCN(CC(=O)O)CCN(CC(=O)O)CC1)C(=O)N[C@@H](CC(=O)O)C(=O)N[C@@H](Cc1ccccc1)C(N)=O` [^177Lu-PP-F11N, DOTA-DGlu-DGlu-DGlu-DGlu-DGlu-DGlu-Ala-Tyr-Gly-Trp-Nle-Asp-Phe-NH2, metal not drawn], the “percentage of intact radioligand present in the blood” value in data set [1] was found to be 12.7%.

Consider `CCCC[C@@H](C(=O)N[C@@H](CC(=O)O)C(=O)N[C@@H](Cc1cccc2ccccc12)C(N)=O)N(C)C(=O)[C@H](Cc1c[nH]c2ccccc12)NC(=O)CNC(=O)[C@H](Cc1ccc(O)cc1)NC(=O)[C@@H]1CCCN1C(=O)[C@@H](CCC(=O)O)NC(=O)CN1CCN(CC(=O)O)CCN(CC(=O)O)CCN(CC(=O)O)CC1` [^177Lu-DOTA-MGS8, metal not drawn] ({DOTA}-[dE]PYGW[NMeNle]D[1Nal]-NH2; C-terminus assumed), for which the “percentage of intact radioligand present in the blood” value in data set [1] amounted to 56.8%. The “tumour uptake in A431-CCK2R xenografts” value in [2] is given as 34.7±9.4 % IA/g.

Take `CCCC[C@@H](C(=O)N[C@@H](CC(=O)O)C(=O)N[C@@H](Cc1cccc2ccccc12)C(N)=O)N(C)C(=O)[C@H](Cc1c[nH]c2ccccc12)NC(=O)CCNC(=O)CC(O)CNC(=O)CC(O)CNC(=O)CN1CCN(CC(=O)O)CCN(CC(=O)O)CCN(CC(=O)O)CC1` (stereo partly drawn) [DOTA-MGSA, DOTA-Gabob-Gabob-βAla-Trp-(NMe)Nle-Asp-1Nal-NH2]: at CCK2R, the half-inhibitory concentration (IC50) (as a rule, the concentration needed to halve the response being measured) is 0.21 ± 0.01 nM.

`CCCC[C@@H](C(=O)N[C@@H](CC(=O)O)C(=O)N[C@@H](Cc1cccc2ccccc12)C(N)=O)N(C)C(=O)[C@H](Cc1c[nH]c2ccccc12)NC(=O)CCNC(=O)CCCNC(=O)CCCNC(=O)CN1CCN(CC(=O)O)CCN(CC(=O)O)CCN(CC(=O)O)CC1` [DOTA-MGSB, DOTA-Gaba-Gaba-βAla-Trp-(NMe)Nle-Asp-1Nal-NH2] ({DOTA-GABA-GABA-βAla}-W[NMeNle]D[1Nal]-NH2) had an IC50 at CCK2R of 0.31 ± 0.02 nM.

With `CCCC[C@@H](C(=O)N[C@@H](CC(=O)O)C(=O)N[C@@H](Cc1cccc2ccccc12)C(N)=O)N(C)C(=O)[C@H](Cc1c[nH]c2ccccc12)NC(=O)CCNC(=O)CC(O)CNC(=O)CC(O)CNC(=O)CN1CCN(CC(=O)O)CCN(CC(=O)O)CCN(CC(=O)O)CC1` (single isomer, unassigned) [^68Ga-DOTA-MGSA, ^68Ga-DOTA-GABOB-GABOB-βAla-Trp-(NMe)Nle-Asp-1Nal-NH2, metal not drawn], the tissue to tissue ratio at 1 h in “in vivo [3]” turned out to be 11.2 ± 0.8. Also, the tissue uptake – broadly, the share of the injected amount in each gram of the tissue – at 1 h in “in vivo [3]” (kidney uptake) was found to be 2.4 ± 0.2 %ID/g; in the data set “in vivo [3]” (setting [10]), 27 ± 0.2 %ID/g.

With `CCCC[C@@H](C(=O)N[C@@H](CC(=O)O)C(=O)N[C@@H](Cc1cccc2ccccc12)C(N)=O)N(C)C(=O)[C@H](Cc1c[nH]c2ccccc12)NC(=O)CNC(=O)[C@H](Cc1ccc(O)cc1)NC(=O)[C@H](C)NC(=O)[C@@H](CCC(=O)O)NC(=O)CN1CCN(CC(=O)O)CCN(CC(=O)O)CCN(CC(=O)O)CC1` [^68Ga-DOTA-MGS5, metal not drawn], the tissue to tissue ratio at 1 h in the data set “in vivo [3]” is 4.1 ± 0.3. Besides, in data set [4], the kidney uptake was 5.71±1.38 % IA/g and the tumour uptake is 23.3±4.7 % IA/g.

The compound `CCCC[C@@H](C(=O)N[C@@H](CC(=O)O)C(=O)N[C@@H](Cc1cccc2ccccc12)C(N)=O)N(C)C(=O)[C@H](Cc1c[nH]c2ccccc12)NC(=O)CCNC(=O)CC[C@@H](NC(=O)CC[C@@H](NC(=O)CN1CCN(CC(=O)O)CCN(CC(=O)O)CCN(CC(=O)O)CC1)C(=O)O)C(=O)O` [DOTA-MGSC, DOTA-γDGlu-γDGlu-βAla-Trp-(NMe)Nle-Asp-1Nal-NH2] ({DOTA-d(γGlu)-d(γGlu)-βAla}-W[NMeNle]D[1Nal]-NH2) showed an IC50 on CCK2R of 0.16 ± 0.01 nM.

`CCCC[C@@H](C(=O)N[C@@H](CC(=O)O)C(=O)N[C@@H](Cc1cccc2ccccc12)C(N)=O)N(C)C(=O)[C@H](Cc1c[nH]c2ccccc12)NC(=O)CNC(=O)[C@H](Cc1ccc(O)cc1)NC(=O)[C@H](C)NC(=O)[C@@H](CCC(=O)O)NC(=O)CN1CCN(CC(=O)O)CCN(CC(=O)O)CCN(CC(=O)O)CC1` [^177Lu-DOTA-MGS5, metal not drawn]: the “percentage intact in the blood” value in data set [1] (10 min p.i.) is given as 85.9%. In addition, the “percentage of intact radioligand present in the blood” value in data set [1] came out at 77.0%. Moreover, the “uptake levels in the blood, comparison of the two peptidomimetics” value in data set [5] was “somewhat lower uptake levels”. The tissue uptake at 4 h in data set [6] (kidney, kidney uptake, ^177Lu-labelled, 4 h p.i.) came out at 3.5 ± 0.9 %ID/g. In data set [6] (tumour and kidney), the tissue to tissue ratio at 4 h was found to be 7 ± 2.2.

For `CCCC[C@@H](C(=O)N[C@@H](CC(=O)O)C(=O)N[C@@H](Cc1cccc2ccccc12)C(N)=O)N(C)C(=O)[C@H](Cc1c[nH]c2ccccc12)NC(=O)CCNC(=O)CC(O)CNC(=O)CC(O)CNC(=O)CN1CCN(CC(=O)O)CCN(CC(=O)O)CCN(CC(=O)O)CC1` (single isomer, unassigned) [^177Lu-DOTA-MGSA, ^177Lu-DOTA-GABOB-GABOB-βAla-Trp-(NMe)Nle-Asp-1Nal-NH2, metal not drawn], in data set [7], the “accumulation of radioactivity in kidneys compared to ^177Lu-DOTA-MGS5” value is “significantly lower”. In addition, in “in vivo [8]”, the tissue to tissue ratio at 4 h came out at 16.7 ± 2.7. Further, the tissue uptake at 4 h in “in vivo [8]” (kidney uptake) was found to be 2 ± 0.3 %ID/g; in “in vivo [8]” (setting [10]), 32.1 ± 4.1 %ID/g. Moreover, the tissue uptake at 1 h in the data set “in vivo [9]” was found to be 56.3 ± 9.1 %ID/g. In “in vivo [9]”, the tissue uptake at 168 h was 1.2 ± 0.5 %ID/g.

Regarding `CCCC[C@@H](C(=O)N[C@@H](CC(=O)O)C(=O)N[C@@H](Cc1cccc2ccccc12)C(N)=O)N(C)C(=O)[C@H](Cc1c[nH]c2ccccc12)NC(=O)CCNC(=O)CC[C@@H](NC(=O)CC[C@@H](NC(=O)CN1CCN(CC(=O)O)CCN(CC(=O)O)CCN(CC(=O)O)CC1)C(=O)O)C(=O)O` [^68Ga-DOTA-MGSC, ^68Ga-DOTA-γDGlu-γDGlu-βAla-Trp-(NMe)Nle-Asp-1Nal-NH2, metal not drawn] ({DOTA-d(γGlu)-d(γGlu)-βAla}-W[NMeNle]D[1Nal]-NH2), in “in vivo [3]”, the tissue to tissue ratio at 1 h worked out at 14.5 ± 0.6. The tissue uptake at 1 h in “in vivo [3]” (kidney uptake) was found to be 2.5 ± 0.1 %ID/g; in “in vivo [3]” (setting [10]) it was 36 ± 1.4 %ID/g.
